“Also recorded” adds a separate entry of the source. Read-outs that look alike come from different tables or passages of the source.
How the values were obtained:
[1] = biological target: T1, human T-type calcium channels hCav3.2 (Homo sapiens, UniProt O95180); assay: whole-cell patch-clamp, calcium peak currents in stably transfected HEK 293 cells; format: cell-based; conditions: for Relative current amplitude (%): hCav3.2 in HEK 293 cells; for IC50: two site binding model
T1 construct: expressed in transfected cells; host or cells: HEK 293 cells (European Collection of Animal Cell Culture)
Experimental: A study was carried out to determine the effect of eslicarbazepine.
Cells were stably transfected with hCav3.2 cDNA.
Calcium inward currents were measured upon depolarization of the cell membrane to −25 mV for 50 ms from a holding potential of −80 mV. This voltage protocol was run at intervals of 10 s until stabilization of evoked hCav3.2 currents. […] Vehicle was either bath solution or 0.2% DMSO.
Analysis of variance (ANOVA) with post test multisample comparison (Dunnett) was conducted with GraphPad Prism 4 Software. IC50 were calculated with the equation: […]

[2] = tested on: absence seizure; assay: mouse absence seizure models (γ-butyrolactone induced, SSADH null, stargazer, C3H/He); format: in vivo; conditions: mice models (a)-(d)
[3] = tested on: α1β2γ2, α2β2γ2, α3β2γ2 or α5β2γ2 GABA-receptors; assay: overall effect on sub-maximal GABA currents (summary of Example 1); format: cell-based; conditions: Ltk cells, all four receptor subtypes
Experimental: (§1) Carbamazepine (CBZ) aggravates absence seizures in ‘generalized absence epilepsy rats from. Strasbourg’. One putative mechanism for the aggravation is through its reported potentiation of GABAA currents. A study was carried out to determine the effect of eslicarbazepine, R-licarbazepine and carbamazepine on sub-maximal GABA currents in Ltk cells stably expressing α1β2γ2, α2β2γ2, α3β2γ2 or α5β2γ2 GABA-receptors. The whole-cell patch-clamp technique was used to investigate the effects of the test compounds on GABAA receptors.
Used Ltk cells were stably transfected with recombinant GABAA cDNAs: α1β2γ2, α2β2γ2, α3β2γ2 or α5β2γ2 (B'SYS GmbH, Switzerland). Cells were maintained in a humidified atmosphere (95% relative humidity) with 5% CO2 and were grown in D-MEM/F-12 (1×, liquid, with GlutaMax 1) supplemented with 9% foetal bovine serum and 0.9% Penicillin/Streptomycin solution (Gibco BRL). For the electrophysiological experiments cells were cultivated, at a density that enabled single cells to be measured, in medium without antibiotics or antimycotics. Cells were tested 24-48 hours following induction of transgene expression with dexamethasone.
Cells were continuously perfused with bath solution (NaCl 137 mM, KCl 4 mM, CaCl2 1.8 mM, MgCl2 1 mM, D-Glucose 10 mM HEPES 10 mM, pH 7.4). […] GABA inward-currents were measured upon application of 1 or 2 μM GABA to patch-clamped cells (at an EC5). […]

[4] = biological target: T2, α2β2γ2 GABA receptors (Homo sapiens, UniProt P18507+P47869+P47870); assay: whole-cell patch-clamp, sub-maximal GABA inward currents in stably transfected Ltk cells; format: cell-based; conditions: Table 1
T2 construct: host or cells: Ltk cells, expression induced with dexamethasone
Experimental: as §1
(§2) Used Ltk cells were stably transfected with recombinant GABAA cDNAs: α1β2γ2, α2β2γ2, α3β2γ2 or α5β2γ2 (B'SYS GmbH, Switzerland). […] For the electrophysiological experiments cells were cultivated, at a density that enabled single cells to be measured, in medium without antibiotics or antimycotics. Cells were tested 24-48 hours following induction of transgene expression with dexamethasone.
(§3) The whole-cell patch clamp recordings from transfected Ltk cells (voltage-clamped at a holding potential of −80 mV) were made using a EPC-7, HEKA Electronics amplifier. GABA inward-currents were measured upon application of 1 or 2 μM GABA to patch-clamped cells (at an EC5).
(§4) Analysis of Variance (ANOVA) with post test multisample comparison (Dunnett) was conducted with GraphPad Prism 4 Software.

[5] = biological target: T3, α3β2γ2 GABA receptors (Homo sapiens, UniProt P18507+P34903+P47870); assay: as above; format: cell-based; conditions: Table 1
T3 construct: host or cells: Ltk cells, expression induced with dexamethasone
Experimental: as §1, §2, §3, §4

[6] = biological target: T4, α5β2γ2 GABA receptors (Homo sapiens, UniProt P18507+P31644+P47870); assay: as above; format: cell-based; conditions: Table 1
T4 construct: host or cells: Ltk cells, expression induced with dexamethasone
Experimental: as §1, §2, §3, §4

[7] = biological target: T5, α1β2γ2 GABA receptors (Homo sapiens, UniProt P14867+P18507+P47870); assay: as above; format: cell-based; conditions: Table 1
T5 construct: host or cells: Ltk cells, expression induced with dexamethasone
Experimental: as §1, §2, §3, §4

[8] = tested on: primary generalised tonic clonic seizure (PGTCS); assay: randomised double-blind placebo controlled trial of adjunctive treatment in PGTCS; format: in vivo; conditions: human patients, adjunct or monotherapy
Description: Clinical trial study: A randomised double-blind, placebo controlled, trial assesses the efficacy and safety of adjunctive eslicarbazepine acetate in primary generalised tonic clonic seizure (PGTCS) in human patients in accordance with established methods. Methods: Men and women are selected for trial according to standard inclusion criteria in the field including the following: • Subject is male or female and aged 6-65 years. • Subject has ≧3 PGTCS over the two months before screening and during the eight weeks Baseline Period with at least one seizure in each one month period. […] Trial endpoints assessed clinical criteria are as follows: • time to withdrawal after randomisation; • time to first, second, or other seizure after randomisation (time to first seizure after randomisation allows determination of the proportion of patients at different time points who remain seizure free); • time to achieving remission (e.g. at six months, one year, or two years); • change in seizure severity; • change in seizure frequency; • percentage response to treatment (response defined as a 50% or greater reduction in seizure frequency); • change in seizure-free interval; • change in seizure duration; • change in seizure pattern; • change in functional capacity; and • patient-related quality of life.

[9] = high affinity fit, read-out: hCav3.2 IC50 (μM) High affinity
[10] = low affinity fit, read-out: hCav3.2 IC50 (μM) Low affinity
[11] = 50 μM with GABA at EC5, Ltk cells
[12] = 100 μM with GABA at EC5, Ltk cells
[13] = 250 μM with GABA at EC5, Ltk cells
[14] = 500 μM with GABA at EC5, Ltk cells

T5 sequence (P14867 28-456): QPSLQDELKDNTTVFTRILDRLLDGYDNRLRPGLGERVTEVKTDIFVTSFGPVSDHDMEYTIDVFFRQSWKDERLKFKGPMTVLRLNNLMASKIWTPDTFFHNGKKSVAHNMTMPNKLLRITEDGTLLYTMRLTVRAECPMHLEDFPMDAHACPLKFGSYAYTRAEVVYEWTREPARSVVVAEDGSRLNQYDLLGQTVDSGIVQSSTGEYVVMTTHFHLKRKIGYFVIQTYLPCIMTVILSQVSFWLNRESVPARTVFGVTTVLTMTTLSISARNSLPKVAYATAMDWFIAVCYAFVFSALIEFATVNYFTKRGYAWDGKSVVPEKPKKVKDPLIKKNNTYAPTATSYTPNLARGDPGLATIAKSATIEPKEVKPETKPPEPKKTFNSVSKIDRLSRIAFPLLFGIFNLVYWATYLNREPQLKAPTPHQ
T5 sequence (P47870 25-512 limits assumed): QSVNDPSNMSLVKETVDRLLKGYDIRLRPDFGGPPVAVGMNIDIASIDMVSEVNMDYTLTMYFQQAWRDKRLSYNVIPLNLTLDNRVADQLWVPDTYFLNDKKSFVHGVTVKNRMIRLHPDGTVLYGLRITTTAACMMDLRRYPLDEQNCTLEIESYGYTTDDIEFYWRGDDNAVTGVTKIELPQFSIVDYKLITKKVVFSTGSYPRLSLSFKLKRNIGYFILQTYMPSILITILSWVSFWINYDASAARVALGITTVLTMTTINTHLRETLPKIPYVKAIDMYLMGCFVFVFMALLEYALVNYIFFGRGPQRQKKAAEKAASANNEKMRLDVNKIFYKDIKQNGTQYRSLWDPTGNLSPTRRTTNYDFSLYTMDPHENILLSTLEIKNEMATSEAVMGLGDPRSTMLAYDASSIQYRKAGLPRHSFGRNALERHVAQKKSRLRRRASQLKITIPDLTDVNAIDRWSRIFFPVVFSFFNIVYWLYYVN
T5 sequence (P18507 40-475): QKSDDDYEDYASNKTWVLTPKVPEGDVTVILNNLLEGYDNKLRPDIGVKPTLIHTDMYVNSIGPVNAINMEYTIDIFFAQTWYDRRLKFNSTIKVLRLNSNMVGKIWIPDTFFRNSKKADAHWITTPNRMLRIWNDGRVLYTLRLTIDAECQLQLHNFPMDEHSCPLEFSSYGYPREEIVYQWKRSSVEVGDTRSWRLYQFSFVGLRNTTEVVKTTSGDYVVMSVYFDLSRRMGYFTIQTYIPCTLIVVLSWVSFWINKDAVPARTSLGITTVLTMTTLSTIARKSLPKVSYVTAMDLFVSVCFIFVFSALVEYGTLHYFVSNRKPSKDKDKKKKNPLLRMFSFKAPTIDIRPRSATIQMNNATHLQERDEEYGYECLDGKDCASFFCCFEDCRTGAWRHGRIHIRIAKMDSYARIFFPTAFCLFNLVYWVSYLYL
T1 sequence (O95180 whole entry): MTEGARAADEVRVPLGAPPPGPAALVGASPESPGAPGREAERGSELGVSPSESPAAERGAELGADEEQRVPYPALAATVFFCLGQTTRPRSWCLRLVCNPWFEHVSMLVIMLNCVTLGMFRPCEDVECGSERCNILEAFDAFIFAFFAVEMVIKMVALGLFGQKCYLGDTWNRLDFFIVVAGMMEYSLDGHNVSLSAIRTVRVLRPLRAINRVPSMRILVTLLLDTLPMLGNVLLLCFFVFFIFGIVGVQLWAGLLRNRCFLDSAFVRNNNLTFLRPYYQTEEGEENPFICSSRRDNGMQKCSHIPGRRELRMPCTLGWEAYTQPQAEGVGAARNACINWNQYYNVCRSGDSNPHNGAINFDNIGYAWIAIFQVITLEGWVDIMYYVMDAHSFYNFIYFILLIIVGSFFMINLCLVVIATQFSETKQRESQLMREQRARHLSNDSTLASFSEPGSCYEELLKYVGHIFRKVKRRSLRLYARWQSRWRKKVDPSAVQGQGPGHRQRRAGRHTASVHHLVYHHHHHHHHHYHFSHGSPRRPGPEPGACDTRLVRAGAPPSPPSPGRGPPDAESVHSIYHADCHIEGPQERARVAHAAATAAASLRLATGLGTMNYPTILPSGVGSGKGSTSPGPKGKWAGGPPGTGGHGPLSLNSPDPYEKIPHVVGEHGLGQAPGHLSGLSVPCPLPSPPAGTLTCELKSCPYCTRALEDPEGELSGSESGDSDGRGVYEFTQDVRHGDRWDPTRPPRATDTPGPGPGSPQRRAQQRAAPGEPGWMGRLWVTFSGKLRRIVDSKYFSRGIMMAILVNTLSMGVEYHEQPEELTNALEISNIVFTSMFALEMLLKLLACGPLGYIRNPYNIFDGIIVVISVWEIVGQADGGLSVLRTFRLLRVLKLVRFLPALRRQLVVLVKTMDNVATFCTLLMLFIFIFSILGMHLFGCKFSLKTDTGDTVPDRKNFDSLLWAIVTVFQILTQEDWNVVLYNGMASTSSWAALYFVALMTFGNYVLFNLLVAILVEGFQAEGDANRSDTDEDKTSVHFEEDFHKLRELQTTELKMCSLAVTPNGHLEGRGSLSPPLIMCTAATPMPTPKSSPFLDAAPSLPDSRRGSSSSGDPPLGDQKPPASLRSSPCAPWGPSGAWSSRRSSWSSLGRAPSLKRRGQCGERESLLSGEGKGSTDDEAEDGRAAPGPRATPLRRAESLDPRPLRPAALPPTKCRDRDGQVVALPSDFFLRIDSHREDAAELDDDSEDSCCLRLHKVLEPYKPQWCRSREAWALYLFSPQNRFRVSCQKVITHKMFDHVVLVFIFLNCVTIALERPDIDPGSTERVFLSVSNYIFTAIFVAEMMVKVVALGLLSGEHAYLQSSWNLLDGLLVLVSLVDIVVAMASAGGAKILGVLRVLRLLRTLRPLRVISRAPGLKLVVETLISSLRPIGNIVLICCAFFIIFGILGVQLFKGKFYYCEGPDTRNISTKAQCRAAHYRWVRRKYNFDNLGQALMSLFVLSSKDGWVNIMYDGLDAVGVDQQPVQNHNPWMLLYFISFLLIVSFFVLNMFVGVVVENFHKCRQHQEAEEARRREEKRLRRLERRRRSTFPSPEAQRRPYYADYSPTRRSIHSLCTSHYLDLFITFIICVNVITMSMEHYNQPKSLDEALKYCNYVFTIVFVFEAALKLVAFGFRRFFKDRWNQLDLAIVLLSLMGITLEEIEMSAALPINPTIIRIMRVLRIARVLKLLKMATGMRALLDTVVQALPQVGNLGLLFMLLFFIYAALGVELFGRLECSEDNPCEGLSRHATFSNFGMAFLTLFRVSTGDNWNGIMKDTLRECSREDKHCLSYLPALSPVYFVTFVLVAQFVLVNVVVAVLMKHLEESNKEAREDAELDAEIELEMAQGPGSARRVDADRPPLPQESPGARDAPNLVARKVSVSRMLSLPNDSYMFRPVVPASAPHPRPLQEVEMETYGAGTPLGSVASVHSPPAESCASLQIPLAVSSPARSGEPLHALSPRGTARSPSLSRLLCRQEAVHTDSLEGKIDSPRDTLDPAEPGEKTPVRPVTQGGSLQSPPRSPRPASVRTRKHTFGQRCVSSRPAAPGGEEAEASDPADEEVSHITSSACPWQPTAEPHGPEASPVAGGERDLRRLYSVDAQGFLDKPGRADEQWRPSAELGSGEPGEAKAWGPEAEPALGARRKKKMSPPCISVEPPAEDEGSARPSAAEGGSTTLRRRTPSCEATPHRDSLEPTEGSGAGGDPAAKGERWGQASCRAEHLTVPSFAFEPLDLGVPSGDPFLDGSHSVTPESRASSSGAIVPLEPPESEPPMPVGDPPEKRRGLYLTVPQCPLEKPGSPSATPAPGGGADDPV
T3 sequence (P34903 29-492): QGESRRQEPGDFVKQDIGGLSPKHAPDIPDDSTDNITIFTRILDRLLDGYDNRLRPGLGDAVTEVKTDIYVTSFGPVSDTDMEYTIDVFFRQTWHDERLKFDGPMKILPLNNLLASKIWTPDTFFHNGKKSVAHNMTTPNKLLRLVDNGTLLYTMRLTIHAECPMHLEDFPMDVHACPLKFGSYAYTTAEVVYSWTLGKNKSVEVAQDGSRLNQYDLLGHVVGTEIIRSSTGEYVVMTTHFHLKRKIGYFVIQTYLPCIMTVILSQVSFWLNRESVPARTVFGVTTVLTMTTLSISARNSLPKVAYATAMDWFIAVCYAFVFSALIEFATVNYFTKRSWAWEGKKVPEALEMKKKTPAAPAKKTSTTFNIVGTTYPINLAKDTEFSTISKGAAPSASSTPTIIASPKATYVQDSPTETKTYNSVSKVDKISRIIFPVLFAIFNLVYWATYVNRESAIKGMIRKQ
T3 sequence (P47870 25-512 limits assumed): as the sequence (P47870 25-512 limits assumed) above
T3 sequence (P18507 40-475): as the sequence (P18507 40-475) above
T2 sequence (P47869 29-451): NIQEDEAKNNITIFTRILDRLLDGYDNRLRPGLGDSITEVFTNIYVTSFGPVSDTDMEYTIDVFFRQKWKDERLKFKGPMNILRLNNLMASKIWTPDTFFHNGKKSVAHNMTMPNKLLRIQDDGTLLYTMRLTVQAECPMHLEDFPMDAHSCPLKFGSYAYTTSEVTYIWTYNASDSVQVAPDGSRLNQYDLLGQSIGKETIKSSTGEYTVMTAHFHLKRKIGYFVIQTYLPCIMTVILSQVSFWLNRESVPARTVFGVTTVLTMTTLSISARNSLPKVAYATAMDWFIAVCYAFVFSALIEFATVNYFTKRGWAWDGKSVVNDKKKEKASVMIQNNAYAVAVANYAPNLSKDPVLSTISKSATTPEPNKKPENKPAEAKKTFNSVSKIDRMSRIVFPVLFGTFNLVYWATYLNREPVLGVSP
T2 sequence (P47870 25-512 limits assumed): as the sequence (P47870 25-512 limits assumed) above
T2 sequence (P18507 40-475): as the sequence (P18507 40-475) above

NC(=O)N1c2ccccc2C[C@H](O)c2ccccc21 [Eslicarbazepine, (S)-10-hydroxy-10,11-dihydro-5H-dibenz[b,f]azepine-5-carboxamide]
effect on hCav3.2 calcium peak currents (in words) [1]: dose dependently inhibited; also recorded: effectively inhibits high and low affinity hCav3.2 inward currents | Relative current amplitude (%) ([1]; 0.3 μM): 86.99 ± 1.56 % | Relative current amplitude (%) ([1]; 1 μM): 81.61 ± 1.31 % | Relative current amplitude (%) ([1]; 3 μM): 76.21 ± 1.61 % | Relative current amplitude (%) ([1]; 10 μM): 71.22 ± 2.40 % | Relative current amplitude (%) ([1]; 30 μM): 73.04 ± 1.64 % | Relative current amplitude (%) ([1]; 50 μM): 61.44 ± 4.96 % | Relative current amplitude (%) ([1]; 100 μM): 54.68 ± 6.35 % | Relative current amplitude (%) ([1]; 250 μM): 46.92 ± 6.64 % | Relative current amplitude (%) ([1]; 500 μM): 51.83 ± 4.77 % | Relative current amplitude (%) ([1]; 1000 μM): 45.48 ± 4.94 % | IC50 [1, 9]: 0.43 µM | IC50 [1, 10]: 62.6 µM | controlling seizures in mouse absence seizure models [2]: effective in controlling seizures | effects upon sub-maximal GABA currents (in words) [3]: devoid of effects | Current stimulation (%) α2β2γ2 [4, 11]: 91.58 ± 2.69% | Current stimulation (%) α2β2γ2 [4, 12]: 97.04 ± 2.65% | Current stimulation (%) α2β2γ2 [4, 13]: 88.56 ± 3.24 % | Current stimulation (%) α2β2γ2 [4, 14]: 89.80 ± 4.01% | Current stimulation (%) α3β2γ2 [5, 11]: 95.61 ± 4.75% | Current stimulation (%) α3β2γ2 [5, 12]: 97.93 ± 4.22% | Current stimulation (%) α3β2γ2 [5, 13]: 96.44 ± 2.16% | Current stimulation (%) α3β2γ2 [5, 14]: 91.63 ± 5.56% | Current stimulation (%) α5β2γ2 [6, 11]: 95.18 ± 2.18% | Current stimulation (%) α5β2γ2 [6, 12]: 93.89 ± 0.60% | Current stimulation (%) α5β2γ2 [6, 13]: 93.52 ± 1.75% | Current stimulation (%) α5β2γ2 [6, 14]: 89.65 ± 3.44% | Current stimulation (%) α1β2γ2 [7, 11]: 103.3 ± 1.96% | Current stimulation (%) α1β2γ2 [7, 12]: 95.92 ± 0.83% | Current stimulation (%) α1β2γ2 [7, 13]: 97.82 ± 1.13% | Current stimulation (%) α1β2γ2 [7, 14]: 99.39 ± 0.80%

NC(=O)N1c2ccccc2C[C@@H](O)c2ccccc21 [R-licarbazepine]
effect on hCav3.2 calcium peak currents (in words) [1]: dose dependently inhibited | Relative current amplitude (%) ([1]; 0.3 μM): 98.42 ± 1.33% | Relative current amplitude (%) ([1]; 1 μM): 92.43 ± 1.41% | Relative current amplitude (%) ([1]; 3 μM): 88.21 ± 1.03 % | Relative current amplitude (%) ([1]; 10 μM): 82.92 ± 1.29 % | Relative current amplitude (%) ([1]; 30 μM): 78.21 ± 2.14 % | Relative current amplitude (%) ([1]; 50 μM): 73.86 ± 3.78 % | Relative current amplitude (%) ([1]; 100 μM): 71.61 ± 1.68 % | Relative current amplitude (%) ([1]; 250 μM): 64.52 ± 3.05 % | Relative current amplitude (%) ([1]; 500 μM): 58.10 ± 2.74 % | Relative current amplitude (%) ([1]; 1000 μM): 39.37 ± 5.33 % | IC50 [1, 9]: 6.54 µM | IC50 [1, 10]: 883 µM | effects upon sub-maximal GABA currents (in words) [3]: devoid of effects | Current stimulation (%) α2β2γ2 [4, 11]: 96.48 ± 2.11% | Current stimulation (%) α2β2γ2 [4, 12]: 97.03 ± 2.27% | Current stimulation (%) α2β2γ2 [4, 13]: 93.79 ± 3.09% | Current stimulation (%) α2β2γ2 [4, 14]: 87.75 ± 1.94 % | Current stimulation (%) α3β2γ2 [5, 11]: 99.53 ± 2.65% | Current stimulation (%) α3β2γ2 [5, 12]: 100.38 ± 1.56% | Current stimulation (%) α3β2γ2 [5, 13]: 102.94 ± 3.34% | Current stimulation (%) α3β2γ2 [5, 14]: 97.35 ± 2.91% | Current stimulation (%) α5β2γ2 [6, 11]: 96.13 ± 0.57% | Current stimulation (%) α5β2γ2 [6, 12]: 94.09 ± 1.27% | Current stimulation (%) α5β2γ2 [6, 13]: 97.24 ± 1.58% | Current stimulation (%) α5β2γ2 [6, 14]: 92.25 ± 1.29% | Current stimulation (%) α1β2γ2 [7, 11]: 99.85 ± 1.18% | Current stimulation (%) α1β2γ2 [7, 12]: 92.53 ± 4.53% | Current stimulation (%) α1β2γ2 [7, 13]: 91.73 ± 4.69% | Current stimulation (%) α1β2γ2 [7, 14]: 95.83 ± 6.63%

CC(=O)O[C@H]1Cc2ccccc2N(C(N)=O)c2ccccc21 [eslicarbazepine acetate, (S)-10-acetoxy-10,11-dihydro-5H-dibenz[b,f]azepine-5-carboxamide]
controlling seizures in mouse absence seizure models [2]: effective in controlling seizures | clinical effects in patients suffering from or susceptible to PGTCS [8]: improved clinical effects
